Patent US20100210562A1, “USE OF IL-1 RECEPTOR PEPTIDE, ALONE OR IN COMBINATION WITH D-ALA-GLN-OCTADECYL ESTER, AS A THERAPEUTIC AGENT” (priority 2007, published 2010)
Where no end group is shown, it is not given here.

Test system: drug-resistant Mycobacterium tuberculosis
Type: cell-based
Details: 10 micrograms per ml; seven days at 37° C.; strain resistant to PAS, streptomycin and isoniazid

Substance | inhibition of the growth of Mycobacterium tuberculosis
Lys-Ile-Cys-Ile-Arg-Ile-Gln-Ile-Ser-OH (KICIRIQIS-OH) [Peptide 1] | 100%
D-Ala-Gln-octadecyl ester [Peptide 2] | 100%
